Data on five compounds can be found in article PMC3806459, “Cyclodextrin Formulation of the Marine Natural Product Pseudopterosin A Uncovers Optimal Pharmacodynamics in Proliferation Studies of Human Umbilical Vein Endothelial Cells” (Marine Drugs, 2013).

The nature of data set [1]: log P by reverse phase HPLC. It is filed as physicochemical. The conditions noted are these: RP-HPLC retention time vs toluene and triphenylene; n = 4; read-out: Direct log P. From the text:
Reverse phase HPLC (RP-HPLC) has been previously used to measure the logarithm of the octanol-water partition coefficient (log P) of many compounds [11]. To obtain the log P values recorded herein, the retention times of the compounds of interest (Table 1) along with the retention times of internal standards (toluene and triphenylene) were utilized. The resulting quantities were then substituted into Equation 1: [drawing 1] (1) where the abbreviation tol refers to toluene, triph to triphenylene, and t to the retention time. Details concerning how this equation was derived have been described by Donovan and Pescatore.
HPLC recordings were achieved using a Hewlett Packard HP/Agilent 1100 HPLC system connected to a 1 cm × 4.6 mm, 5 µm aPHera™ C18 Polymer HPLC column (catalog number 56130AST). Colorimetric assays were performed on a Molecular Devices Vmax microplate reader.

Data set [2] relates to PMA induced mouse ear edema. The experiment in a line: phorbol myristate acetate (PMA) induced mouse ear edema assay. The conditions noted are these: topical 50 µg/ear with PMA 2 µg/ear, 3 h 20 min; (1/SA) in milligrams of inhibited edema per mol of drug; n = 10. It counts as in vivo. Here is the method:
The compounds were then assessed using the standard phorbol myristate acetate (PMA) induced mouse ear edema assay to determine their anti-inflammatory specific activity. In this assay, the specific activity of the drug, SA, is expressed as log(1/SA). For the mouse ear model, the molar concentration of the drug was calculated using Equation 2: SA = (mol of drug) (∆ in edema from control)^−1(2) where the difference in edema from control, ∆, refers to the difference in the average weight of the mouse ear between treated and untreated biopsies. The outcome, (1/SA), is expressed in units of milligrams of inhibited edema per mol of drug. […] Note Table 1.
Male Swiss Webster albino mice were briefly anesthetized with halothane. Compounds were topically applied to the inside pinnae of the ears of the mice in a solution containing the edema-causing irritant PMA. PMA alone (2 µg/ear) or in combination with the test compound (50 µg/ear) were dissolved in acetone and applied to the left ears (5 mice per treatment group, n = 10/compound), and acetone alone was applied to all right ears. After 3 h and 20 min incubation, the mice were euthanized, the ears removed and a 6 mm diameter biopsy was taken from the center of each ear and immediately weighed. Edema was measured by subtracting the weight of the right ear (acetone control) from the weight of the left ear (treated). Compounds that were not soluble in 100% acetone were dissolved in 20% ethanol: 80% acetone v/v. Results were recorded as % decrease (inhibition) in edema relative to the PMA control group edema.

The next data set has as its system wound healing. Set-up: method as in PMID 20363514. The conditions noted are these: topical; ref [5]; cited from earlier work.
Another data set relates to early wound repair. Set-up: method as in ref [7] = [7]; 7. Vimrx Pharmaceuticals New Drug Application VM 301 for Use in Phase I/IIA Clinical Trials IND 60,606 12 7 2000. The conditions noted are these: Phase II, double blind; ref [7]; cited from earlier work.
For data set [3], the system named is HUVEC cells. The experiment in a line: HUVEC cytotoxicity elicited by drug formulations (LDH release). The conditions noted are these: vehicle alone: 0.02% DMSO, 0.016% Cremophor EL, 0.05% HPβCD; 42 h, growth factor depleted media, 37 °C; n = 4.
Protocol: HUVEC LDH release with (A) 0.02% DMSO (B) 0.016% Cremophor EL and (C) 0.05% HPβCD after 42 h in growth factor depleted media at 37 °C. Data are presented as mean ± SEM (n = 4).
Dimethylsulfoxide (DMSO) is the most widely utilized solvent, and is used extensively in biological assays for attaining aqueous solubility for non-polar drug molecules. To determine the potential cytotoxic effects associated with DMSO, Cremophor EL, and HPβCD in a HUVEC system, we report three conditions that were chosen after considering the minimum required vehicle concentration for PsA (drug) solubility.
All cell culture experiments were performed using HUVEC cells initially seeded at 3 × 10^5 cells/75 cm^2 flask and fed every 1–2 days with fresh EGM-2 complete culture media (EBM-2 basal media with hVEGF, hFGF, hIGF, hEGF, hydrocortisone, ascorbic acid, heparin, 2% FBS, and GA-1000). For each experiment cells were split at 80% confluence. All experiments were conducted between generations 4 and 10. Starvation media consisted of EBM-2 basal media with 0.1% FBS, and GA-1000 (antibiotic mixture). Growth factor depleted media consisted of EBM-2 basal media with 2% FBS, hydrocortisone, ascorbic acid, heparin, and GA-1000.
Data set [4] has as its system HUVEC cells. More on the design: method as in PMID 2875457, PMID 3574294, PMID 21556163. The conditions noted are these: all formulation systems tested; ref [1],[22],[23]; cited from earlier work.
Data set [5] relates to human adenosine A2A receptor. Set-up: method as in doi:10.1016/j.tet.2009.09.021. The conditions noted are these: DMSO formulation; high amount of non-specific binding; ref [4]; cited from earlier work.
A short description of the next data set: aqueous solubility. The conditions noted are these: without DMSO, Cremophor or cyclodextrin. It counts as physicochemical. From the text: […] Reverse phase HPLC was utilized as described in Section 3.3 above to confirm the quantity of solubilized drug that remained unchanged between formulations.
Data set [6] has as its system HUVEC cells. The experiment in a line: WST-1 cell proliferation assay. It is filed as cell-based, human. The method, then:
Figure 4 PsA Potently Activates HUVEC Proliferation. […] Note saturation kinetics. Cytotoxicity is illustrated as a vertical dashed line at 1.5 × 10^−5 M in all vehicles tested. The percentage increase was calculated as [100 × (T/C)] where T/C is defined as […]. Data are presented as mean ± SEM (n = 16).
(§1) For each experiment cells were split at 80% confluence. All experiments were conducted between generations 4 and 10.
HUVEC were harvested from a T-75 plate by trypsinization and resuspended in EGM-2 complete culture media. Cells were plated at 500 cells per well of a 96-well plate and incubated overnight at 37 °C in a 5% CO2 atmosphere. EGM-2 complete culture media was removed and replaced with starvation media for 8 h. During this time, drug dilutions were prepared in growth factor depleted media. Starvation media was replaced with drug dilution in growth factor depleted media and incubated at 37 °C in a 5% CO2 atmosphere. After 41 h, 10 µL of WST-1 reagent was added to each well and incubated for 1 h. Plates were then read on a multiplate reader at 450 nm with background reference of 650 nm.

Data set [7] deals with HUVEC cells. Put plainly: scratch migration assay. It is filed as cell-based, human. The conditions noted are these: 3.9 × 10^−8 M PsA in 0.05% HPβCD, depleted media, over 10 h; n = 16. The method, then:
The in vitro scratch assay is commonly used to simulate cellular events that accompany the presence of a wound. Here, a thin scratch made in a cellular monolayer mimics the wound. The migration of cells in response to the scratch is then monitored using microscopic images at various time points to determine the rate of migration.
as §1
HUVEC were harvested from a T-75 plate by trypsinization and resuspended in EGM-2 complete culture media and were plated into T-25 cell culture flasks and allowed to grow to approx 90% confluence. EGM-2 complete culture media was then removed and replaced with starvation media for 8 h. A uniform scratch in the monolayer was then produced using a sterile pipette tip approximately 500 µm in width. Starvation media was replaced with 5 mL of either PsA in drug dosing media, or HPβCD in drug dosing media, or HPβCD in EGM-2 complete culture media. Microscopic images were taken at 400 times magnification every 5 min beginning at t = 0, and continuing until t = 10 h. Images were analyzed by determining the distance between cells on either side of scratch over time. Percent scratch closure was set to be a function of 1 − (average distance at each time point/average width of scratch).

In data set [8] the test system is human adenosine A1 receptor. More on the design: method as in doi:10.1016/j.tet.2009.09.021. The conditions noted are these: DMSO formulation; high amount of non-specific binding; ref [4]; cited from earlier work.
The subject of the next data set is human neutrophils. Set-up: method as in ref [3] = [3]; 3. Luedke E.S. The Identification and Characterization of Pseudopterosins: Anti-Inflammatory Agents Isolated from the Gorgonian Coral Pseudopterogorgia elisabethae Ph.D. Thesis University of Californi. The conditions noted are these: in vitro; ref [3]; cited from earlier work.
Data set [9] can be described thus: stability of the cyclodextrin inclusion complex by HPLC and NMR. It counts as physicochemical. The conditions noted are these: PsA inclusion complex in HPβCD; observed by HPLC and NMR. Here is the method: Hydroxypropyl-beta-cyclodextrin (HPβCD) was added to DI-water at a concentration of 20% w/v. The mixture was then vortexed and sonicated briefly to yield a colorless, transparent, slightly viscous liquid. Separately, a given quantity of pseudopterosin A (PsA) was then solubilized in 100% methanol to yield a yellow, transparent liquid. An aliquot of this solution was then added to a culture tube and dried under inert atmosphere yielding an off-white solid. The previously prepared hydroxypropyl-beta-cyclodextrin solution was then added and vortexed for 10 min. The mixture was orbitally shaken at 4 °C for at least 7 days prior to use to ensure equilibration of the cyclodextrin drug complex. […] Stability was conserved at least 14 days, as observed by HPLC and NMR.

Data set [10] has as its system human adenosine A2B receptor. More on the design: method as in doi:10.1016/j.tet.2009.09.021. The conditions noted are these: DMSO formulation; high amount of non-specific binding; ref [4]; cited from earlier work.
Data set [11] concerns human adenosine A3 receptor. More on the design: method as in doi:10.1016/j.tet.2009.09.021. The conditions noted are these: DMSO formulation; high amount of non-specific binding; ref [4]; cited from earlier work.

As for `CC(C)=CC1CC(C)C2CCC(C)C3=C2C1=C(C)C(=O)C31OC2OC(C)C(O)C(O)C2O1` (stereo not shown) [Analog 1, pseudopterosin keto ketal], in [1], the chromatographic logP was 3.95 ± 0.02. For the same compound, the “log(1/SA) (anti-inflammatory specific activity)” value (“log(1/SA)” for short) in data set [2] was 7.63 ± 0.06 mg/mol.
As for `COc1c(C)c2c3c(c1O[C@@H]1OC[C@@H](O)[C@H](O)[C@H]1O)[C@@H](C)CC[C@@H]3[C@@H](C)C[C@@H]2C=C(C)C` [Analog 3, PsA methyl ether], the “efficacy in wound healing” value with wound healing was “topical efficacy”. Also, in the data set with early wound repair, the “effect on early wound repair above vehicle alone” value was “increased angiogenesis, granulation, and re-epithelialization”. In addition, the chromatographic logP in data set [1] was 4.37 ± 0.02.
In the case of `CC(C)=C[C@H]1C[C@H](C)[C@H]2CC[C@H](C)c3c(O[C@@H]4O[C@@H](C)[C@@H](O)[C@@H](O)[C@@H]4O)c(O)c(C)c1c32` [Analog 5, iso-PsE], the chromatographic logP in data set [1] was found to be 4.59 ± 0.05. In [2], the “log(1/SA)” value is on record as 8.02 ± 0.02 mg/mol.
For `C[S+](C)[O-]` [DMSO, Dimethylsulfoxide], the “LDH release (cytotoxicity)” value in the data set with HUVEC cells [3] is recorded as 18.4% ± 1.6%.
For `CC(C)=C[C@H]1C[C@H](C)[C@H]2CC[C@H](C)c3c(O[C@@H]4OC[C@@H](O)[C@H](O)[C@H]4O)c(O)c(C)c1c32` [Analog 4, Pseudopterosin A], the cytotoxic concentration in the data set with HUVEC cells [4] was above 10 µM. Further, the binding affinity result in data set [5], in data set [8], in data set [10] and in data set [11] was “micromolar” in each case. Besides, the “solubility in an aqueous medium” value in the data set “aqueous solubility” was “low solubility”. The increase in proliferation in the data set with HUVEC cells [6] (1.0 × 10^−7 M PsA in HPβCD) is recorded as 25%; in the data set with HUVEC cells [6] (PsA in 0.02% DMSO, 42 h, compared to DMSO alone), 30% ± 4.8%. Besides, in the data set with HUVEC cells [6] (HUVEC proliferation), the “increase in potency of HPβCD formulation over DMSO formulation” value turned out to be 200 fold. The “increased HUVEC proliferation” value in the data set with HUVEC cells [6] (PsA in 0.016% Cremophor EL, 42 h) is 15%. Further, the Kd in the data set with HUVEC cells [6] (PsA in 0.05% HPβCD, from analysis of proliferation dose response) was 0.0145 µM. Also, the “concentration at which cytotoxicity occurred” value in the data set on HUVEC cells [6] (all formulations/vehicles tested in HUVEC cells) is at least 15 µM. In the data set with HUVEC cells [7], the “rate of HUVEC cell migration” value was 9.98 ± 1.2 µm h^−1. Moreover, the “effect on calcium ionophore induced degranulation and infiltration” value in the data set on human neutrophils is reported as “inhibited”. The stability conserved entry in data set [9] is given as “at least 14 days”. Also, in data set [1], the chromatographic logP is 4.42 ± 0.06. For the same compound, the “log(1/SA)” value in data set [2] turned out to be 8.08 ± 0.01 mg/mol.

The Kd is a measure of binding affinity in units of concentration. Read a high Kd as a looser complex.
